# From article PMC10910532, “Structure of the GDP-bound state of the SRP GTPase FlhF” (Acta Crystallographica. Section F, Structural Biology …, 2024)
# Molecular target: T1, NG-FlhF (Shewanella putrefaciens, UniProt A4Y8J9)
# T1 construct: gene Sputcn32_2561; NG domain, residues 174-460, C-terminal His6 tag, recombinant from E. coli BL21(DE3), monomer; residues 183-437 modelled
# T1 sequence (A4Y8J9 174-460): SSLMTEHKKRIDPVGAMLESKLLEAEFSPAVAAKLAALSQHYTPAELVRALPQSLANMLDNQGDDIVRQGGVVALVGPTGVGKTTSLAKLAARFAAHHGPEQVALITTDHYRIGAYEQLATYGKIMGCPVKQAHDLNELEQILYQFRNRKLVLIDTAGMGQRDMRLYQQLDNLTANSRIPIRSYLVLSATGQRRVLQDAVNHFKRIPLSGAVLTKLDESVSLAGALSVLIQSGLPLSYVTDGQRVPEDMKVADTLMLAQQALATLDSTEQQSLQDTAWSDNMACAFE
# Assay: X-ray crystal structure
# Format: binding
# Details: 5 mM GDP pre-incubated with protein; crystallised at pH 5.0, 20 °C; nucleotide site, no Mg2+ in active site
structure (smiles),measurement,value
Nc1nc2c(ncn2[C@@H]2O[C@H](COP(=O)(O)OP(=O)(O)O)[C@@H](O)[C@H]2O)c(=O)[nH]1 [GDP],X-ray crystal structure,Density which could unambiguously be assigned to GDP was found in the active center
